3 compounds from patent US11116735B2, “Use of substituted benzylideneguanidine derivatives as synergists for polymyxin antibiotics” (GUANGZHOU INSIGHTER BIOTECHNOLOGY CO., LTD., priority 2015, dated 2021) can be followed below.

Molecules are shown by their SMILES. Bounds are passed on as bounds.

In one test the test system is E. coli 3B-24. Kind of test: MIC by doubling dilution, colistin sulfate-susceptible E. coli 3B-24. It counts as cell-based, Escherichia coli. Particulars: for In vitro minimum inhibitory concentration (MIC) of the substance alone: E. coli 3B-24, colistin sulfate-susceptible, derivatives as hydrochlorides; for In vitro MIC of colistin sulfate in the presence of the substituted benzylideneguanidine derivative: E. coli 3B-24, culture comprised 20.0 ppm of the derivative (hydrochloride), colistin sulfate serially diluted.

Another test deals with E. coli 4D-6. Kind of test: MIC by doubling dilution, colistin sulfate-resistant E. coli 4D-6. To be noted: for In vitro minimum inhibitory concentration (MIC) of the substance alone: E. coli 4D-6, colistin sulfate-resistant, derivatives as hydrochlorides; for In vitro MIC of colistin sulfate in the presence of the substituted benzylideneguanidine derivative: E. coli 4D-6, resistant, culture comprised 20.0 ppm of the derivative (hydrochloride).

The next test relates to E. coli 3H-4. The experiment in a line: MIC by doubling dilution, colistin sulfate-resistant E. coli 3H-4. To be noted: for In vitro minimum inhibitory concentration (MIC) of the substance alone: E. coli 3H-4, colistin sulfate-resistant, derivatives as hydrochlorides; for In vitro MIC of colistin sulfate in the presence of the substituted benzylideneguanidine derivative: E. coli 3H-4, resistant, culture comprised 20.0 ppm of the derivative (hydrochloride).

In a further test the test system is E. coli 2G-7. Kind of test: MIC by doubling dilution, colistin sulfate-resistant E. coli 2G-7. Particulars: for In vitro minimum inhibitory concentration (MIC) of the substance alone: E. coli 2G-7, colistin sulfate-resistant, derivatives as hydrochlorides; for In vitro MIC of colistin sulfate in the presence of the substituted benzylideneguanidine derivative: E. coli 2G-7, resistant, culture comprised 20.0 ppm of the derivative (hydrochloride).

The next test concerns E. coli 2S-19. The experiment in a line: MIC by doubling dilution, colistin sulfate-susceptible E. coli 2S-19. It counts as cell-based, Escherichia coli. Particulars: for In vitro minimum inhibitory concentration (MIC) of the substance alone: E. coli 2S-19, colistin sulfate-susceptible, derivatives as hydrochlorides; for In vitro MIC of colistin sulfate in the presence of the substituted benzylideneguanidine derivative: E. coli 2S-19, culture comprised 20.0 ppm of the derivative (hydrochloride), colistin sulfate serially diluted.

The next test relates to E. coli 5W-7. Kind of test: MIC by doubling dilution, colistin sulfate-susceptible E. coli 5W-7. Format: cell-based, Escherichia coli. To be noted: for In vitro minimum inhibitory concentration (MIC) of the substance alone: E. coli 5W-7, colistin sulfate-susceptible, derivatives as hydrochlorides; for In vitro MIC of colistin sulfate in the presence of the substituted benzylideneguanidine derivative: E. coli 5W-7, culture comprised 20.0 ppm of the derivative (hydrochloride), colistin sulfate serially diluted.

The subject of the next test is E. coli 3Y-9. The experiment in a line: MIC by doubling dilution, colistin sulfate-susceptible E. coli 3Y-9. Format: cell-based, Escherichia coli. To be noted: for In vitro minimum inhibitory concentration (MIC) of the substance alone: E. coli 3Y-9, colistin sulfate-susceptible, derivatives as hydrochlorides; for In vitro MIC of colistin sulfate in the presence of the substituted benzylideneguanidine derivative: E. coli 3Y-9, culture comprised 20.0 ppm of the derivative (hydrochloride), colistin sulfate serially diluted.

The next test deals with E. coli 5F-1. The experiment in a line: MIC by doubling dilution, colistin sulfate-resistant E. coli 5F-1. To be noted: for In vitro minimum inhibitory concentration (MIC) of the substance alone: E. coli 5F-1, colistin sulfate-resistant, derivatives as hydrochlorides; for In vitro MIC of colistin sulfate in the presence of the substituted benzylideneguanidine derivative: E. coli 5F-1, resistant, culture comprised 20.0 ppm of the derivative (hydrochloride).

Procedure for E. coli 2G-7: (§1) In vitro minimum inhibitory concentrations of colistin sulfate against the strains where the cultures respectively comprised 20.0 ppm of the substituted benzylideneguanidine derivatives were also measured.
Procedure for E. coli 3H-4: as §1
Procedure for E. coli 4D-6: as §1
Procedure for E. coli 5F-1: as §1

Regarding `CC(C)c1ccc(C=NNC(=N)NN=Cc2ccc(C(C)C)cc2)cc1` [Compound 11], the “In vitro minimum inhibitory concentration (MIC) of the substance alone” value with E. coli 3B-24, in the test with E. coli 4D-6, in the test with E. coli 3H-4, in the test on E. coli 2G-7, in the test on E. coli 2S-19 and in the test on E. coli 5W-7 was more than 800 ppm each time. Moreover, the “In vitro minimum inhibitory concentration (MIC) of the substance alone” value in the test on E. coli 3Y-9 and in the test on E. coli 5F-1 was more than 800 ppm throughout. Besides, the “In vitro MIC of colistin sulfate in the presence of the substituted benzylideneguanidine derivative” value (“In vitro MIC of colistin sulfate” below) in the test with E. coli 3B-24 came to 2.00 ppm; in the test with E. coli 4D-6 it was 64 ppm; in the test with E. coli 3H-4, 16 ppm; in the test with E. coli 2G-7 it was 16 ppm; in the test on E. coli 2S-19, 1.00 ppm; with E. coli 5W-7 it was 0.50 ppm. In addition, the “In vitro MIC of colistin sulfate” value with E. coli 3Y-9 is listed as 1.00 ppm; in the test with E. coli 5F-1, 16 ppm.
On to `CCOc1ccc(C=NN=C(N)NN=Cc2ccc(OCC)cc2)cc1` [Compound 2], for which the “In vitro minimum inhibitory concentration (MIC) of the substance alone” value in the test on E. coli 3B-24, in the test on E. coli 4D-6, with E. coli 3H-4, in the test with E. coli 2G-7, with E. coli 2S-19 and in the test on E. coli 5W-7 was more than 800 ppm each time. Further, the “In vitro minimum inhibitory concentration (MIC) of the substance alone” value in the test with E. coli 3Y-9 and in the test with E. coli 5F-1 was more than 800 ppm in each case. Moreover, the “In vitro MIC of colistin sulfate” value is reported as 2.00 ppm in the test on E. coli 3B-24; 8.0 ppm in the test with E. coli 4D-6; 2.0 ppm with E. coli 3H-4; 2.0 ppm in the test with E. coli 2G-7; 2.00 ppm in the test with E. coli 2S-19; 1.00 ppm in the test on E. coli 5W-7. In addition, the “In vitro MIC of colistin sulfate” value in the test with E. coli 3Y-9 amounted to 2.00 ppm; in the test with E. coli 5F-1, 4.0 ppm.
In the case of `N=C(NN=Cc1ccc([N+](=O)[O-])cc1)NN=Cc1ccc([N+](=O)[O-])cc1` [Compound 15], the “In vitro minimum inhibitory concentration (MIC) of the substance alone” value with E. coli 3B-24, in the test on E. coli 4D-6, in the test on E. coli 3H-4, with E. coli 2G-7, with E. coli 2S-19 and in the test with E. coli 5W-7 was more than 800 ppm in each case. In addition, the “In vitro minimum inhibitory concentration (MIC) of the substance alone” value in the test on E. coli 3Y-9 and in the test with E. coli 5F-1 was more than 800 ppm throughout. Also, the “In vitro MIC of colistin sulfate” value in the test with E. coli 3B-24 was found to be 1.00 ppm; in the test on E. coli 4D-6, 16 ppm; in the test with E. coli 3H-4 it was 4 ppm; with E. coli 2G-7, 4 ppm; with E. coli 2S-19, 1.00 ppm; with E. coli 5W-7 it was 0.50 ppm. Also, the entries for the “In vitro MIC of colistin sulfate” value with E. coli 3Y-9 and in the test with E. coli 5F-1 were 1.00 ppm and 8 ppm, respectively.
